Measurements reported in US20240158446A1, “CYCLIC COMPOUND HAVING SELECTIVE INHIBITORY ACTION ON KRAS OVER HRAS AND NRAS” (CHUGAI SEIYAKU KABUSHIKI KAISHA, priority 2021, published 2024).
Read-outs that look alike come from different tables or passages of the source. *1 amine or outer side, *2 acyl side, *3 side chain or, on linkers, in order; H or OH if unused. Where a SMILES comes first, the peptide text is derived from it. Bridges are numbered along the chain shown (N, C = ends). [ ]: non-standard residue; d: D form. The star is where a group is joined. hPhe(3-Cl-4-CF3) = N[C@@H](CCc1ccc(C(F)(F)F)c(Cl)c1)C(=O)O; X38 = C#CCN([C@@H](Cc1ccc(C(F)(F)F)cc1)C(=O)[*:2])[*:1]; NPrPhe(4-CF3) = CCCN[C@@H](Cc1ccc(C(F)(F)F)cc1)C(=O)O; NEtPhe(4-CF3) = CCN[C@@H](Cc1ccc(C(F)(F)F)cc1)C(=O)O; hPhe(3,4-Cl2) = N[C@@H](CCc1ccc(Cl)c(Cl)c1)C(=O)O; NMeAbu(4,4,4-F3) = CN[C@@H](CC(F)(F)F)C(=O)O; NMeGly(cPent) = CN[C@H](C(=O)O)C1CCCC1; NMeGly(cBu) = CN[C@H](C(=O)O)C1CCC1; NMeD = CN[C@@H](CC(=O)O)C(=O)O; NMeL = CN[C@@H](CC(C)C)C(=O)O; Pip = O=C(O)[C@@H]1CCCCN1; Morpholide = C1CN(*)CCO1; NMeA = CN[C@@H](C)C(=O)O; Ac5c = NC1(C(=O)O)CCCC1; Aze = O=C(O)[C@@H]1CCN1; Sar = CNCC(=O)O

Experiments:
[1] = target: GDP-bound NRAS wild-type protein (Homo sapiens, UniProt P01111); assay: Binding to NRAS by surface plasmon resonance (SPR), Single Cycle Kinetics; conditions: for NRAS/KRAS (ratio of KD value for NRAS to KD value for KRAS): SPR, GDP-bound NRAS wild-type protein vs GDP-bound KRAS wild-type protein; for NRAS/KRAS (ratio of KD value with respect to GDP-bound NRAS wild-type protein to KD value with respect to KRAS): SPR KD ratio NRAS/KRAS, class symbols
Sequence of GDP-bound NRAS wild-type protein (P01111 whole entry): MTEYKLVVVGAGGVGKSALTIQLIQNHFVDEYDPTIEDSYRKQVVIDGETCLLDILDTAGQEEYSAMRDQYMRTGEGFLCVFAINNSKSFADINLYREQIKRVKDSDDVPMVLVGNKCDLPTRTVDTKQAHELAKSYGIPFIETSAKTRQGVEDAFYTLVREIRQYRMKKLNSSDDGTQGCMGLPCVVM

[2] = target: GDP-bound KRAS wild-type protein (Homo sapiens, UniProt P01116); assay: Binding to KRAS by surface plasmon resonance (SPR), Single Cycle Kinetics; conditions: GDP-bound KRAS wild-type protein, read-out: KRAS KD
Sequence of GDP-bound KRAS wild-type protein (P01116 whole entry): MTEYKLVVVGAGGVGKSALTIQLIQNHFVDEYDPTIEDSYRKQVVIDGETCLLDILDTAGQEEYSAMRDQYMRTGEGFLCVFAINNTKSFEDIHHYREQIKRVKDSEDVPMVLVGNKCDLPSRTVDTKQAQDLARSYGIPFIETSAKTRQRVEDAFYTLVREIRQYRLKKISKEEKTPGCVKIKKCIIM

[3] = target: GDP-bound HRAS wild-type protein (Homo sapiens, UniProt P01112); assay: Binding to HRAS by surface plasmon resonance (SPR), Single Cycle Kinetics; conditions: for HRAS/KRAS (ratio of KD value for HRAS to KD value for KRAS): SPR, GDP-bound HRAS wild-type protein vs GDP-bound KRAS wild-type protein; for HRAS/KRAS (ratio of KD value with respect to GDP-bound HRAS wild-type protein to KD value with respect to KRAS): SPR KD ratio HRAS/KRAS, class symbols
Sequence of GDP-bound HRAS wild-type protein (P01112 whole entry): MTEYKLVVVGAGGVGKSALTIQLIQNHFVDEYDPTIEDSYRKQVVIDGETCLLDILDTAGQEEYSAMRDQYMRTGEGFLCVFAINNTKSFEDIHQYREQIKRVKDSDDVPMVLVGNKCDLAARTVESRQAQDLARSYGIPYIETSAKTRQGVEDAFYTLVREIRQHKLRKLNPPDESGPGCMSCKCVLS

[4] = SPR Single Cycle Kinetics, 1:1 binding model
[5] = SPR, Single Cycle Kinetics, 1:1 binding model

| Kd [2, 4] [pM] | Compound | NRAS/KRAS (ratio of KD value for NRAS to KD value for KRAS) [1] | HRAS/KRAS (ratio of KD value for HRAS to KD value for KRAS) [3] | NRAS/KRAS (ratio of KD value with respect to GDP-bound NRAS wild-type protein to KD value with respect to KRAS) [1] | HRAS/KRAS (ratio of KD value with respect to GDP-bound HRAS wild-type protein to KD value with respect to KRAS) [3] | also measured |
| --- | --- | --- | --- | --- | --- | --- |
| 400 | CC[C@H](C)[C@@H]1NC(=O)[C@H](CC(C)C)N(C)C(=O)C[C@@H](C(=O)N2CCOCC2)N(C)C(=O)[C@H](C2CCCC2)N(C)C(=O)C2(CCCC2)NC(=O)[C@@H]2CCCN2C(=O)[C@H](CCc2ccc(Cl)c(Cl)c2)NC(=O)CN(C)C(=O)[C@H](Cc2ccc(C(F)(F)F)cc2)N(CC)C(=O)[C@@H]2CCN2C(=O)[C@H](C)N(C)C1=O [PP0223] ([NMeL]I[NMeA][Aze][NEtPhe(4-CF3)][Sar][hPhe(3,4-Cl2)]P[Ac5c][NMeGly(cPent)][NMeD]-Morpholide; lactam N-11) | C (A compound having a KD ratio of 0.1 or more and less than 3 is denoted as C) | C (A compound having a KD ratio of 0.1 or more and less than 3 is denoted as C) | – | – | – |
| 250 | C#CCN1C(=O)CN(C)C(=O)CN(C)C(=O)[C@H]([C@@H](C)CC)NC(=O)[C@H](CC(C)C)N(C)C(=O)C[C@@H](C(=O)N2CCOCC2)N(C)C(=O)[C@H](C2CCCC2)N(C)C(=O)C2(CCCC2)NC(=O)[C@@H]2CCCN2C(=O)[C@H](CCc2ccc(C(F)(F)F)c(Cl)c2)NC(=O)CN(C)C(=O)[C@@H]1Cc1ccc(C(F)(F)F)cc1 [PP0130] ([NMeL]I[Sar][Sar][X38][Sar][hPhe(3-Cl-4-CF3)]P[Ac5c][NMeGly(cPent)][NMeD]-Morpholide; lactam N-11) | C (A compound having a KD ratio of 0.1 or more and less than 3 is denoted as C) | C (A compound having a KD ratio of 0.1 or more and less than 3 is denoted as C) | – | – | – |
| 2300 | CCC[C@H]1C(=O)N[C@@H]([C@@H](C)CC)C(=O)N(C)CC(=O)N(C)[C@H]2C/C=C\CCN(C2=O)[C@@H](Cc2ccc(C(F)(F)F)cc2)C(=O)N(C)CC(=O)N[C@@H](CCc2ccc(C(F)(F)F)c(Cl)c2)C(=O)N2CCOC[C@H]2C(=O)NC2(CC(C)(C)C2)C(=O)N(C)[C@@H](C(CC)CC)C(=O)N(C)[C@H](C(=O)N(C)C)CC(=O)N1C [PP2929] | – | – | AA (a compound having 20 or more is denoted as AA) | A (a compound having 10 or more and less than 20 is denoted as A) | – |
| 1800 | CCO[C@@H]1C[C@H]2C(=O)NC3(CC(C)(C)C3)C(=O)N(C)[C@@H](CC3CCC3)C(=O)N(C)[C@H](C(=O)N(C)C)CC(=O)N(C)[C@@H](COC)C(=O)N[C@@H]([C@@H](C)CC)C(=O)N(C3CC3)CC(=O)N(C)[C@H]3C/C=C\CCN(C3=O)[C@@H](Cc3ccc(C(F)(F)F)cc3)C(=O)N(C)CC(=O)N[C@@H](CCc3ccc(Cl)c(Cl)c3)C(=O)N2C1 [PP2821] | – | – | A (a compound having 10 or more and less than 20 is denoted as A) | A (a compound having 10 or more and less than 20 is denoted as A) | – |
| – | CCCOC[C@H]1C(=O)N[C@@H]([C@@H](C)CC)C(=O)N(C)CC(=O)N(C)[C@H]2C/C=C\CCN(C2=O)[C@@H](Cc2ccc(C(F)(F)F)cc2)C(=O)N(C)CC(=O)N[C@@H](CCc2cc(F)c(C(F)(F)F)c(F)c2)C(=O)N2C[C@H](OCC)C[C@H]2C(=O)NC2(CC(C)(C)C2)C(=O)N(C)[C@@H](C2CCCC2)C(=O)N(C)[C@H](C(=O)N(CC)CC)CC(=O)N1C [PP1575] | – | – | – | – | NRAS/KRAS (ratio of KD value for NRAS to KD value for KRAS) ([1]; KD ratio class): B (a compound having 3 or more and less than 10 is denoted as B); Kd [2, 5]: 550 pM; HRAS/KRAS (ratio of KD value for HRAS to KD value for KRAS) ([3]; KD ratio class): B (a compound having 3 or more and less than 10 is denoted as B) |
| 670 | CCCN1C(=O)[C@@H]2CCN2C(=O)[C@H](C)N(C)C(=O)[C@H]([C@@H](C)CC)NC(=O)[C@H](CC(C)C)N(C)C(=O)C[C@@H](C(=O)N2CCOCC2)N(C)C(=O)[C@H](C2CCCC2)N(C)C(=O)C2(CCCC2)NC(=O)[C@@H]2CCCCN2C(=O)[C@H](CCc2ccc(C(F)(F)F)c(Cl)c2)NC(=O)CN(C)C(=O)[C@@H]1Cc1ccc(C(F)(F)F)cc1 [PP0284] ([NMeL]I[NMeA][Aze][NPrPhe(4-CF3)][Sar][hPhe(3-Cl-4-CF3)][Pip][Ac5c][NMeGly(cPent)][NMeD]-Morpholide; lactam N-11) | C (A compound having a KD ratio of 0.1 or more and less than 3 is denoted as C) | B (a compound having 3 or more and less than 10 is denoted as B) | – | – | – |
| 360 | CCC(CC)[C@H]1C(=O)N(C)[C@H](C(=O)N(C)C)CC(=O)N(C)[C@@H](COC)C(=O)N[C@@H]([C@@H](C)CC)C(=O)N(C)CC(=O)N(C)[C@H]2C/C=C\CCN(C2=O)[C@@H](Cc2ccc(C(F)(F)F)cc2)C(=O)N(C)CC(=O)N[C@@H](CCc2cc(F)c(C(F)(F)F)c(F)c2)C(=O)N2CC3(CC3)C[C@H]2C(=O)NC2(CC(C)(C)C2)C(=O)N1C [PP2961] | – | – | AA (a compound having 20 or more is denoted as AA) | A (a compound having 10 or more and less than 20 is denoted as A) | – |
| 1300 | CCC(CC)[C@H]1C(=O)N(C)[C@H](C(=O)N(C)C)CC(=O)N(C)[C@@H](COC)C(=O)N[C@@H]([C@@H](C)CC)C(=O)N(C)CC(=O)N(C)[C@H]2C/C=C\CCN(C2=O)[C@@H](Cc2ccc(C(F)(F)F)cc2)C(=O)N(C)CC(=O)N[C@@H](CCc2cc(F)c(C(F)(F)F)c(F)c2)C(=O)N2CCCC[C@H]2C(=O)NC2(CC(C)(C)C2)C(=O)N1C [PP2916] | – | – | A (a compound having 10 or more and less than 20 is denoted as A) | A (a compound having 10 or more and less than 20 is denoted as A) | – |
| 140 | CCCN1C(=O)[C@@H]2CCN2C(=O)[C@H](C)N(C)C(=O)[C@H]([C@@H](C)CC)NC(=O)[C@H](CC(F)(F)F)N(C)C(=O)C[C@@H](C(=O)N2CCOCC2)N(C)C(=O)[C@H](C2CCCC2)N(C)C(=O)C2(CCCC2)NC(=O)[C@@H]2CCCN2C(=O)[C@H](CCc2ccc(C(F)(F)F)c(Cl)c2)NC(=O)CN(C)C(=O)[C@@H]1Cc1ccc(C(F)(F)F)cc1 [PP0191] ([NMeAbu(4,4,4-F3)]I[NMeA][Aze][NPrPhe(4-CF3)][Sar][hPhe(3-Cl-4-CF3)]P[Ac5c][NMeGly(cPent)][NMeD]-Morpholide; lactam N-11) | C (A compound having a KD ratio of 0.1 or more and less than 3 is denoted as C) | B (a compound having 3 or more and less than 10 is denoted as B) | – | – | – |
| 190 | CCCN1C(=O)[C@@H]2CCN2C(=O)[C@H](C)N(C)C(=O)[C@H]([C@@H](C)CC)NC(=O)[C@H](C2CCC2)N(C)C(=O)C[C@@H](C(=O)N2CCOCC2)N(C)C(=O)[C@H](C2CCCC2)N(C)C(=O)C2(CCCC2)NC(=O)[C@@H]2CCCN2C(=O)[C@H](CCc2ccc(C(F)(F)F)c(Cl)c2)NC(=O)CN(C)C(=O)[C@@H]1Cc1ccc(C(F)(F)F)cc1 [PP0192] ([NMeGly(cBu)]I[NMeA][Aze][NPrPhe(4-CF3)][Sar][hPhe(3-Cl-4-CF3)]P[Ac5c][NMeGly(cPent)][NMeD]-Morpholide; lactam N-11) | C (A compound having a KD ratio of 0.1 or more and less than 3 is denoted as C) | B (a compound having 3 or more and less than 10 is denoted as B) | – | – | – |
| – | CC[C@H](C)[C@@H]1NC(=O)[C@H](CC2CC2)N(C)C(=O)C[C@@H](C(=O)N(C)C)N(C)C(=O)[C@H](C2CCCC2)N(C)C(=O)C2(CCC2)NC(=O)[C@@H]2CC(F)(F)CN2C(=O)[C@H](CCc2cc(F)c(C(F)(F)F)c(F)c2)NC(=O)CN(C)C(=O)[C@H](Cc2ccc(C(F)(F)F)cc2)N2CC/C=C\C[C@@H](C2=O)N(C)C(=O)CN(C)C1=O [PP1500, (2S,8S,14S,20S,23S,27S,30S,36S,38Z)-20-cyclopentyl-27-(cyclopropylmethyl)-8-[2-[3,5-difluoro-4-(trifluoromethyl)phenyl]ethyl]-12,12-difluoro-N,N,4,19,22,26,32,35-octamethyl-30-[(1S)-1-methylpropyl]-3,6,9,15,18,21,25,28,31,34,42-undecaoxo-2-[[4-(trifluoromethyl)phenyl]methyl]spiro[1,4,7,10,16,19,22,26,29,32,35-undecazatricyclo[34.5.1.0^10,14]dotetracont-38-ene-17,1′-cyclobutane]-23-carboxamide] | – | – | – | – | NRAS/KRAS (ratio of KD value for NRAS to KD value for KRAS) ([1]; KD ratio class): A (a compound having 10 or more and less than 20 is denoted as A); Kd [2, 5]: 39 pM; HRAS/KRAS (ratio of KD value for HRAS to KD value for KRAS) ([3]; KD ratio class): A (a compound having 10 or more and less than 20 is denoted as A) |
| – | CCO[C@@H]1C[C@H]2C(=O)NC3(CCC3)C(=O)N(C)[C@@H](C3CCCC3)C(=O)N(C)[C@H](C(=O)N(C)C)CC(=O)N(C)[C@@H](CC)C(=O)N[C@@H]([C@@H](C)CC)C(=O)N(C)CC(=O)N(C)[C@H]3CCCCCN(C3=O)[C@@H](Cc3ccc(F)c(Cl)c3)C(=O)N(C)CC(=O)N[C@@H](CCc3cc(F)c(C(F)(F)F)c(F)c3)C(=O)N2C1 [PP0909] | B (a compound having 3 or more and less than 10 is denoted as B) | B (a compound having 3 or more and less than 10 is denoted as B) | – | – | Kd ([2]; SPR, Single Cycle Kinetics): 480 pM |
